One compound from ChEMBL document CHEMBL3882245, “Novel aminopyridine derivatives having aurora a selective inhibitory action” (2008) can be followed below.

The structures appear in SMILES notation.

The nature of the assay: Cytotoxicity against human HeLaS3 cells assessed as cell growth inhibition at 0.3 nM after 3 days by WST-8 assay. The format is functional. The note with it: HeLa S3, 72 h, read-out: GI.

`CC(=O)O[C@@]12CO[C@@H]1C[C@H](O)[C@@]1(C)C(=O)[C@H](O)C3=C(C)[C@@H](OC(=O)[C@H](O)[C@@H](NC(=O)OC(C)(C)C)c4ccccc4)C[C@@](O)([C@@H](OC(=O)c4ccccc4)[C@H]21)C3(C)C` [DOCETAXEL ANHYDROUS]: the inhibition of growth at 0.0003 µM lay within 25.6 to 53.4%.
